# Legend:
# [1] = tested on: posterior lateral plate (PLP) mesoderm explants; test: Cardiac induction in posterior lateral plate (PLP) mesoderm explants; assay type: cell-based, chick; conditions: PLP mesoderm cocultured with transfected COS cells; RT-PCR
# Description: (§1) As crescent is expressed in anterior endoderm at approximately the stage expected for a heart-inducing factor, we investigated whether this Wnt inhibitor could induce the formation of heart muscle in explanted gastrula-stage posterior tissues. We made a replication-competent RCAS-crescent retrovirus and examined whether viral crescent expression can substitute for anterior endoderm in the cardiac induction assay. Explants of either PLP-mesoderm or PPS were infected with RCAS viruses encoding either crescent (RCAS-crescent) or alkaline phosphatase (RCAS-AP).
# (§2) Eggs were incubated to the given stage (Hamburger and Hamilton 1951), and tissues were dissected with tungsten needles in Tyrodes solution using 1% agar dishes as a base. Serum-free medium containing insulin, transferrin, and selenium was adapted from Stern and Hauschka (1995) and supplemented with 2% chick embryo extract (Life Technologies). Virally infected explants were incubated on ice with viral supernatant diluted 1:1 with culture medium for 1-2 h, then cultured overnight in a sandwich of 35% collagen pads and overlaid with the above concentration of viral supernatant and medium containing 8 μg/mL polybrene. The following day, 0.25 mL of culture medium was added to each well. Anterior endoderm and COS cell cocultures were carried out on 2-μ pore size Nucleopore filters floating on culture medium. […]
# [2] = tested on: posterior primitive streak (PPS) explants; test: Cardiac induction in posterior primitive streak (PPS) explants; assay type: cell-based, chick; conditions: PPS cocultured with transfected COS cells; RT-PCR
# Description: as §1, §2
substance,measurement,setting,value
dkk-1,"Cardiac gene expression (Nkx-2.5, CMHC1)",[1],induced both Nkx2.5 and CMHC1
same,"Cardiac gene expression (Nkx-2.5, CMHC1)",[2],failed to activate cardiac gene expression
